Test system in one series: not listed separately
The series is described as follows: Microsomal stability. The format is in vitro ADME. Conditions: human.
Sequence of hERG (Q12809 whole entry): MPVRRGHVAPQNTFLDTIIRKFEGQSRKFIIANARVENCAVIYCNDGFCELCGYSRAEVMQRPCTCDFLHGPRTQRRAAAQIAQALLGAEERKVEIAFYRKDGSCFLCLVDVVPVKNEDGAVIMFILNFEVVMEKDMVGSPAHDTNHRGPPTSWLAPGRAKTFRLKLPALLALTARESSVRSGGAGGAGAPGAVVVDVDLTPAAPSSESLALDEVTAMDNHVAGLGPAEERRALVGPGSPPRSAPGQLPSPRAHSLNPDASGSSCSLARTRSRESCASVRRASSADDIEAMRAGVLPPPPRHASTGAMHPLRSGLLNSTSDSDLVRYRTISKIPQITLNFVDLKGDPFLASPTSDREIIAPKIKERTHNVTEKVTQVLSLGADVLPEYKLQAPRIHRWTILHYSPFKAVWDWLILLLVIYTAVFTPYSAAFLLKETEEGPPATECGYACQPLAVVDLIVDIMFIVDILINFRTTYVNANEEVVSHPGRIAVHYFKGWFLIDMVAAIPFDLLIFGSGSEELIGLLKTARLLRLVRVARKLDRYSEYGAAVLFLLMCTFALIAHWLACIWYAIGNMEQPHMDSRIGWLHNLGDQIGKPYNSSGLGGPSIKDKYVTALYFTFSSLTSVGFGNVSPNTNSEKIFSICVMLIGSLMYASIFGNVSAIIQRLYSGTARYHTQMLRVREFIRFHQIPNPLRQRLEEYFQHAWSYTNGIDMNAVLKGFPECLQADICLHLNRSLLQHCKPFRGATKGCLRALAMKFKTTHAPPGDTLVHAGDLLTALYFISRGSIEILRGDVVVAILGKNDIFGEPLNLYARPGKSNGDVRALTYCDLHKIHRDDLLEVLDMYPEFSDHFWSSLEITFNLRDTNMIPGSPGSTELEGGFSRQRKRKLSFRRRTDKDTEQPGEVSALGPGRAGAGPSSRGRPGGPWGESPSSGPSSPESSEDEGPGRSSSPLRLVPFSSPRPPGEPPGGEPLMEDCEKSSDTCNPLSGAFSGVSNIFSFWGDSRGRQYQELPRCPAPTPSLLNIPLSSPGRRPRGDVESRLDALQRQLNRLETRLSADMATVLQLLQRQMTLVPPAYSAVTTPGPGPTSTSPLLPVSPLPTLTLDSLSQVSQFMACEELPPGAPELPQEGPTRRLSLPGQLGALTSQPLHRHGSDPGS
Turning to `O=C(CN1C(C(=O)c2ccc(F)c(Cl)c2)=C(O)c2ccc(F)cc2S1(=O)=O)Nc1ccc(C(F)(F)F)cc1` [Compound 13c, 2-(3-(3-Chloro-4-fluorobenzoyl)-7-fluoro-4-hydroxy-1,1-dioxido-2H-benzo[e][1,2]thiazin-2-yl)-N-(4-(trifluoromethyl)phenyl)acetamide], the “microsomal stability (in words)” value is given as “good microsomal stability”.

A further series has as its system SARS-CoV-2. The series is described as follows: Anti-SARS-CoV-2 activity, cellular phenotypic screening. The format is cell-based. As to conditions: Vero cells.
In the case of `O=C(C1=C(O)c2ccccc2S(=O)(=O)N1Cc1ccccc1)c1ccccc1` [Compound 5a, (2-Benzyl-4-hydroxy-1,1-dioxido-2H-benzo[e][1,2]thiazin-3-yl)(phenyl)methanone], the “anti-SARS-CoV-2 activity (in words)” value was “no anti-SARS-CoV-2 activities”.
On to `O=C(CN1C(C(=O)c2ccc(F)cc2)=C(O)c2ccccc2S1(=O)=O)Nc1ccccc1` [Compound 4a, 2-(3-(4-fluorobenzoyl)-4-hydroxy-1,1-dioxido-2H-benzo[e][1,2]thiazin-2-yl)-N-phenylacetamide], for which the “anti-SARS-CoV-2 activity (in words)” value is recorded as “no inhibitory effect”.
Regarding `O=C(O)/C=C/N1C(C(=O)c2ccc(F)c(Cl)c2)=C(O)c2ccccc2S1(=O)=O` [Compound 7, (E)-3-(3-(3-Chloro-4-fluorobenzoyl)-4-hydroxy-1,1-dioxido-2H-benzo[e][1,2]thiazin-2-yl)acrylic acid], the “anti-SARS-CoV-2 activity (in words)” value was “no antiviral effect”.
Same read-out and setting: the result for `N#Cc1ccc(C(=O)C2=C(O)c3ccccc3S(=O)(=O)N2CC(=O)c2ccc(F)c(Cl)c2)cc1` [Compound 5c, 4-(2-(2-(3-Chloro-4-fluorophenyl)-2-oxoethyl)-4-hydroxy-1,1-dioxido-2H-benzo[e][1,2]thiazine-3-carbonyl)benzonitrile] reads “no anti-SARS-CoV-2 activities”; that for `O=C(CN1C(C(=O)c2ccc(F)cc2)=C(O)c2ccccc2S1(=O)=O)Nc1ccccc1Cl` [Compound 4b, N-(2-Chlorophenyl)-2-(3-(4-fluorobenzoyl)-4-hydroxy-1,1-dioxido-2H-benzo[e][1,2]thiazin-2-yl)acetamide], “no inhibitory effect”.
Take `N#Cc1cccc(C(=O)C2=C(O)c3ccccc3S(=O)(=O)N2CC(=O)c2ccc(F)c(Cl)c2)c1` [Compound 5b, 3-(2-(2-(3-Chloro-4-fluorophenyl)-2-oxoethyl)-4-hydroxy-1,1-dioxido-2H-benzo[e][1,2]thiazine-3-carbonyl)benzonitrile]: the “anti-SARS-CoV-2 activity (in words)” value was “no anti-SARS-CoV-2 activities”.
Same read-out and setting: for `CCNC(=O)CN1C(C(=O)c2ccccc2)=C(O)c2ccccc2S1(=O)=O` [Compound 4f, 2-(3-Benzoyl-4-hydroxy-1,1-dioxido-2H-benzo[e][1,2]thiazin-2-yl)-N-ethylacetamide] the value was “detrimental for anti-SARS-CoV-2 activities”.

The next series has as its target hERG (Homo sapiens, UniProt Q12809). The series is described as follows: hERG inhibition. It is filed as binding.
Settings: not given
A general note: The hERG channel carries a current that helps repolarise heart muscle cells.
`O=C(CN1C(C(=O)c2ccc(F)c(Cl)c2)=C(O)c2ccc(F)cc2S1(=O)=O)Nc1ccc(C(F)(F)F)cc1` [Compound 13c, 2-(3-(3-Chloro-4-fluorobenzoyl)-7-fluoro-4-hydroxy-1,1-dioxido-2H-benzo[e][1,2]thiazin-2-yl)-N-(4-(trifluoromethyl)phenyl)acetamide]: the “hERG binding (in words)” value is on record as “low binding with hERG”.

The values are drawn from article PMC7640924 (Bioorganic & Medicinal Chemistry Letters, 2020).
